Data taken from PubChem BioAssay (NCI).
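Exposure lasted 48 hours, with cells grown in 96-well plates and compounds tested at five concentrations. Here, GI50 denotes the concentration required for 50% inhibition of growth. TGI: concentration producing complete growth inhibition.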

Columns and labels:
Assay in all cases: DTP human tumour cell line panel, 48 h
[1] = system: SR leukemia
[2] = system: NCI-H522 lung
[3] = system: RXF 393 renal
[4] = system: IGROV1 ovarian
[5] = system: SF-295 CNS
[6] = system: M14 melanoma
[7] = system: MALME-3M melanoma
[8] = system: MOLT-4 leukemia
[9] = system: NCI-H226 lung
[10] = system: ACHN renal

Compound	GI50 [1]	TGI [1]	GI50 [2]	TGI [2]	GI50 [3]	TGI [3]	GI50 [4]	TGI [4]	GI50 [5]	TGI [5]	GI50 [6]	TGI [6]	GI50 [7]	TGI [7]	GI50 [8]	TGI [8]	GI50 [9]	TGI [9]	GI50 [10]	TGI [10]
CN(C)CCOc1nc2ccccc2c2c1-c1ccc(Cl)cc1C2=O	0.305 µM	1.03 µM	0.573 µM	2.09 µM	1.07 µM	2.55 µM	0.444 µM	1.73 µM	1.53 µM	> 100 µM	1.12 µM	2.72 µM	1.07 µM	2.43 µM	0.302 µM	1.51 µM	0.735 µM	8.65 µM	0.419 µM	1.72 µM
O=C(CC1(O)C(=O)Nc2c(Cl)ccc(Cl)c21)c1ccc(C2CC2)cc1 (stereo not given)	0.106 µM	15.3 µM	0.43 µM	1.9 µM	0.632 µM	2.64 µM	1.5 µM	18.2 µM	0.44 µM	4.32 µM	0.422 µM	3.25 µM	1.53 µM	26.8 µM	1.19 µM	18.1 µM	3.05 µM	25.5 µM	2.19 µM	20.2 µM
Nc1cccc2nsnc12		> 63.5 µM		> 52.2 µM		> 100 µM		> 100 µM		> 100 µM		> 100 µM		> 100 µM		> 54.5 µM		> 100 µM		> 100 µM
CCc1oc2ccc(OC)c3c2c1C=CC=C3		> 100 µM		> 100 µM		> 100 µM		> 100 µM		> 100 µM		> 100 µM		> 100 µM		> 100 µM		> 100 µM		> 100 µM
O=[N+]([O-])c1ccc(-c2ccccc2)c([As](=O)(O)O)c1	10.3 µM	57.3 µM	6.92 µM	21.3 µM	10.7 µM	23.2 µM	8.35 µM	27.8 µM	22.3 µM	> 100 µM	26.6 µM	> 100 µM	11.6 µM	34.6 µM	19.9 µM	> 100 µM	18.5 µM	69.4 µM	13.7 µM	30.1 µM
CS(=O)(=O)c1nc(Cl)c(Cl)c(C#N)c1Cl		> 36.4 µM		1.28 µM		3.07 µM		14.1 µM		35.1 µM		3.64 µM		4.45 µM		6.02 µM		24.6 µM		5.26 µM
CC12OC3CC(O1)C1(C=O)C4CCC5(C)C(c6ccc(=O)oc6)CCC5(O)C4CCC1(C3)O2 (stereo not given)		0.245 µM		0.317 µM		0.256 µM		2.44 µM		1.02 µM		0.596 µM		0.51 µM		0.244 µM		1.23 µM		0.348 µM
O=C1c2ccccc2C(=O)c2c(NC(=O)c3ccc4c5c(ncnc35)-c3ccccc3C4=O)cccc21		> 100 µM		> 100 µM		49.1 µM		> 100 µM		64 µM		> 100 µM		> 100 µM		> 100 µM		> 100 µM		> 100 µM
CCC[CH2][Sn]1([CH2]CCC)[O]C(=O)c2cc(C)ccc2[O]1	0.295 µM	1.28 µM	0.0859 µM	0.232 µM	0.283 µM	0.555 µM	0.924 µM	2.21 µM	0.628 µM	1.99 µM	0.342 µM	1.5 µM	0.112 µM	0.938 µM	0.301 µM	1.09 µM	1.85 µM	3.37 µM	0.457 µM	1.59 µM
CCOC(=O)C(Cc1ccc(OC)cc1)C(=O)OCC	1.88 µM	5.38 µM	2.53 µM	8.73 µM	2.61 µM	7.02 µM	3.46 µM	14.3 µM	5 µM	20.3 µM	8.17 µM	20.7 µM	9.94 µM	28 µM	3.2 µM	11 µM	12.4 µM	30.3 µM	7.33 µM	22.3 µM
C/C(=N\Nc1cccc(Cl)n1)c1ccccn1	0.421 µM	> 44.2 µM	0.508 µM	> 40.3 µM	0.982 µM	16.1 µM	0.533 µM	> 59.1 µM	0.827 µM	> 32.3 µM	0.737 µM	14.3 µM	1.78 µM	8.71 µM	0.407 µM	> 100 µM	0.978 µM	6.57 µM	0.556 µM	18.4 µM
C[N+]1=c2c3cccc4cccc(c(=O)n2CCC1)c43		46.9 µM		30.2 µM		60.8 µM		> 100 µM		> 100 µM		33.2 µM		32.9 µM		58.9 µM		36.5 µM		51.8 µM
COc1cc(/C=C/C(=O)c2ccc(Nc3nc(Nc4ccccc4)nc(Nc4ccc(Cl)cc4)n3)cc2)cc(OC)c1OC	1.07 µM	19.3 µM	13.9 µM	> 32.5 µM	5.09 µM	25.3 µM	8.17 µM	> 32.5 µM	7.22 µM	> 32.5 µM	15.1 µM	> 32.5 µM	9.71 µM	> 32.5 µM	2.65 µM	> 32.5 µM	7.66 µM	> 32.5 µM	10.8 µM	> 32.5 µM
